Results: patent US10555687B2, “Apparatus and method for physiologic and pharmacodynamic assessment and monitoring” (priority 2015, dated 2020)

System: Aβ fiber
Experiment: PRD pharmacological assessment of sciatic nerve pain
Type: in vivo, human
Source text: According to one embodiment, the neuro-stimulator can be integrated with a smartphone, thereby allowing for the detection of mechanism specific nociception via recording and parameterization of the PRD under a multitude of conditions. Parameterization of the PRD curve includes two static measures: a pupillary baseline and peak dilation diameters (dilation amplitude or DA), and at least three dynamic measures: slopes of the ascending and descending portions of the PRD curve representing the dilation velocity (DV) and recovery velocity, as well as the duration of the reflex, and the area under the curve representing pain sensitivity/intensity.
By one embodiment, large-fiber neuropathic pain is transmitted via Aβ nerve fiber type, which is stimulated at 2000 Hz. Neuropathic pain is detected and measured by examining the relationship of the parameters of the PRD to a 2000 Hz stimulus. Small fiber neuropathic pain is transmitted via C-fiber and Aδ fibers, and is often seen with metabolic disorders such as diabetes or chemotherapy induced neuropathic pain. The neuropathic pain index (NPI) integrates the intensity stimulus (mA) relative to the DV, DA, AUC and recovery time. Accordingly, neuropathic pain can be defined with respect to whether the pain is a small fiber based pain or a large fiber based pain. Moreover the NPI provisions for flexibility of monitoring an intervention. […]

SMILES: NCC1(CC(=O)O)CCCCC1 [Gabapentin]
- pain sensitivity (PRD) in sciatic nerve pain (compression of the Aβ fiber, large fiber neuropathic pain (FIG. 8B)): diminishes the pain sensitivity
- area under the PRD curve compared with opioid intervention (sciatic nerve pain (FIG. 8B)): substantially smaller
